Consider 1 molecule from patent US20260053792A1, “POLYSUBSTITUTED TETRAHYDROISOQUINOLINE COMPOUNDS, METHOD FOR PREPARING SAME, PHARMACEUTICAL COMPOSITION THEREOF, AND USE THEREOF” (SHANGHAI INSTITUTE OF MATERIA MEDICA, CHINESE ACADEMY OF …, priority 2022, published 2026).

Read-outs that look alike come from different tables or passages of the source.

The data set in a line: Tissue distribution of compound A26 in mice (plasma / cerebrospinal fluid drug concentration). It counts as in vivo. The settings on record: for Kp at 0.25 h / Kp at 0.5 h / concentration at 15 min / concentration at 30 min: mouse; for Kp at 0.25 h / Kp at 0.5 h: brain/plasma, read-out: Brain to plasma drug concentration ratio (Cbrain/Cplasma); for Kp at 0.25 h / concentration at 15 min: 15 min; for Kp at 0.5 h / concentration at 30 min: 30 min. Here is the method:
The drug concentrations in plasma or cerebrospinal fluid at two time points of 15 minutes and 30 minutes under three administration routes: oral (20 mg/kg), intraperitoneal injection (10 mg/kg), and intravenous injection (5 mg/kg) were measured.

Setting [1] is: cerebrospinal fluid, IP 10 mg/kg, read-out: cerebrospinal fluid.
The mark [2] stands for this setting: cerebrospinal fluid, IV 5 mg/kg, read-out: cerebrospinal fluid.
[3] abbreviates: cerebrospinal fluid, PO 20 mg/kg, read-out: cerebrospinal fluid.
Setting [4] is: plasma, IP 10 mg/kg, read-out: Cardiac plasma.
Where [5] appears, read: plasma, IV 5 mg/kg, read-out: Cardiac plasma.
The mark [6] stands for this setting: plasma, PO 20 mg/kg, read-out: Cardiac plasma.

Turning to `COc1cc2c(cc1OC)C(CCc1c[nH]c3ccccc13)N(CC1CCOCC1)CC2` (stereo not shown) [Compound A26, 1-(2-(1H-indol-3-yl)ethyl)-6,7-dimethoxy-2-((tetrahydro-2H-pyran-4-yl)methyl)-1,2,3,4-tetrahydroisoquinoline], the “blood-brain barrier penetration ability and brain targeting property” value (conclusion from brain/plasma ratios) was “good”. The Kp at 0.25 h is, setting by setting: (IP 10 mg/kg) 2.12; (IV 5 mg/kg) 3.3; (PO 20 mg/kg) 3.4. Also, the Kp at 0.5 h by setting is: (IP 10 mg/kg) 1.91; (IV 5 mg/kg) 2.2; (PO 20 mg/kg) 1.6. Also, the concentration at 15 min by setting is: under setting [1], 665 ± 49 ng/g; under setting [2], 1560 ± 245 ng/g; under setting [3], 224 ± 363 ng/g; under setting [4], 313 ± 15 ng/mL; under setting [5], 466 ± 85 ng/mL; under setting [6], 65.3 ± 94.7 ng/mL. Also, the concentration at 30 min amounted to 355 ± 106 ng/g under setting [1]; 292 ± 69 ng/g under setting [2]; 32.4 ± 11.9 ng/g under setting [3]; 186 ± 57 ng/mL under setting [4]; 135 ± 47 ng/mL under setting [5]; 20.7 ± 6.1 ng/mL under setting [6].
